Experimental data reported in patent US12005056B2, “Centrally-active ghrelin agonist and medical uses thereof” (Helsinn Healthcare SA, priority 2018, dated 2024).
Entries after “also recorded” stand apart in the source; their conditions may differ. Like-named read-outs stand apart in the source and are kept apart here.

Assays:
[1] = mouse, in vivo
Description: Sixty female Balb/C mice weighing 20-25 g at start of experiment were used and divided into 4 groups of 15 mice each. […] Body weights were measured daily, immediately prior to the initiation of dosing.

[2] = rat, in vivo
[3] = tested on: bortezomib-treated Wistar rats; experiment: Bortezomib study, prevention paradigm; type: in vivo; conditions: for Allodynia / Body Weight / DRG/nerve pathology / IENFD / NCS: Bortezomib Preventive setting, 0.2 mg/kg (i.v.) 3 times/week for 8 weeks
[4] = tested on: oxaliplatin-treated Balb/C mice; conditions: for Body Weight / IENFD / NCS: Oxaliplatin 6 mg/kg (i.p.) twice weekly for 4 weeks
[5] = dog, in vivo
healthy male subjects = type: in vivo, human; conditions: for maximal decrease of mean heart rate (Holter-ECG): 1 to 3 hours after administration
Description: The study was performed as a single-center, randomized, double-blind, placebo-controlled, Phase 1 study with healthy male subjects receiving single ascending oral doses of Compound A. A dose-escalation design was considered to be appropriate to investigate the safety and tolerability of this new compound in the first single dose study in humans. Within each cohort six subjects were to receive a single oral dose of Compound A and two subjects were to receive placebo on Day 1.
Each subject received a single oral dose of either Compound A or placebo in a randomized fashion. Study drug administrations were performed in the morning of Day 1. The proper administration of the study medication was supervised by the Investigator or delegate. This included checking the oral and buccal cavity. The study medication or placebo was supplied as powder-containing gelatin capsules; they were administered orally together with 240 mL water. Subjects were dosed in a fasted state (no food was taken for at least 8 hours prior to dosing). Access to food was restricted until 4 hours after dosing.
12-lead ECGs were recorded on Day −1 and from pre-dose on Day 1 to 72 hours after drug administration. In addition, a Holter-ECG was recorded from about at least 12 hours prior to the planned dosing until 24 hours post-dose. Triplicate extracts (1 min interval) were taken at the same time-points when paper ECGs were taken. Vital signs (blood pressure, pulse rate, body temperature [auricular measurement]) were measured on Day −1 and then from pre-dose on Day 1 to 72 hours post-dose. 12-lead ECGs were recorded as scheduled in the study flow chart using the ECG system (Cardiosoft, Marquette Hellige). Triplicate ECGs were recorded at 36, 48 and 72 hours post-dose. The ECGs were recorded in supine position after at least 5 minutes rest or after at least 15 minutes rest at time points when ECG extracts from the Holter-ECG were done (to allow for a sufficient time period). ECGs were plotted with a paper speed of 50 mm/s and 10 mm/mV amplitude, with 10 seconds recording duration for all leads and at least 3 complexes, but preferably 5 complexes in each lead. The following ECG parameters were evaluated: heart rate, PR interval, QRS interval, QT interval, QTcB (using Bazett's correction formula) and QTcF (using Fridericia's correction formula).

proteasome activity = experiment: Proteasome inhibition study in bortezomib-treated rats; type: in vivo, Wistar rats; conditions: co-administration at different doses, preventive or therapeutic settings
Description: At baseline and after 8 weeks of treatment, caudal and digital nerve conduction and potential amplitude studies, behavioral tests (Dynamic) and blood collection to study proteasome inhibition were performed. After 8 weeks of treatment, tissue samples (sciatic and caudal nerves, DRG and foot pads) were collected and analyzed to study morphological parameters and intraepidermal nerve fibre density (IENFD).
At baseline and after 8 weeks of treatment, caudal and digital nerve conduction and potential amplitude studies and blood collection to study proteasome inhibition were performed. […] After 8 weeks of treatment, sciatic nerves, caudal nerves, DRG and foot pads were collected from all animals and analyzed to study morphological parameters and IENFDs.

3-(1-(2,3-dichloro-4-methoxyphenyl) ethyl)-1-methyl-1-(1,3,3-trimethylpiperidin-4-yl)urea monohydrochloride salt [Compound A]
tissue penetration index (ratio of tissue/plasma) in DRG [1]: 18-19 fold | tissue penetration index (ratio of tissue/plasma) in SN [1]: 9-12 fold | Tissue penetration index (DRG/plasma ratio) ([1]; 10 mg/kg): 17.6 | Tissue penetration index (SN/plasma ratio) ([1]; 10 mg/kg): 8.9 | Tissue penetration index (DRG/plasma ratio) ([1]; 30 mg/kg): 18.9 | Tissue penetration index (SN/plasma ratio) ([1]; 30 mg/kg): 12.0 | AUC0-∞ in sciatic nerve and DRG relative to plasma ([1]; po, 30 mg/kg): 3-4 fold | terminal half-life in plasma ([1]; po, 30 mg/kg): approximately 1 h | terminal half-life in sciatic nerve ([1]; po, 30 mg/kg): approximately 4.7 h | F [2]: 70.6% | 2 hr brain concentration ([2]; iv): 172. ng · g | 2 hr plasma concentration ([2]; iv): 119.3 ng/mL | AUC (0-t) ([2]; iv, 3 mg/kg): 701.5 ng·h/mL | Cmax ([2]; iv, 3 mg/kg): 468.4 ng/mL | T1/2 z ([2]; iv, 3 mg/kg): 1.6 h | Vz/F ([2]; iv, 3 mg/kg): 9.9 L/kg | AUC (0-t) ([2]; po, 3 mg/kg): 495.3 ng·h/mL | Cmax ([2]; po, 3 mg/kg): 58.6 ng/mL | T1/2 z ([2]; po, 3 mg/kg): 12.7 h | Vz/F ([2]; po, 3 mg/kg): 38.6 L/kg | tmax ([2]; po, 3 mg/kg): 3.3 h | Allodynia ([3]; Compound A dose 3): + | Body Weight ([3]; Compound A dose 3): +/− | DRG/nerve pathology ([3]; Compound A dose 3): − | IENFD ([3]; Compound A dose 3): + | NCS ([3]; Compound A dose 3): − | Allodynia ([3]; Compound A dose 10): + | Body Weight ([3]; Compound A dose 10): +/− | DRG/nerve pathology ([3]; Compound A dose 10): +/− | IENFD ([3]; Compound A dose 10): + | NCS ([3]; Compound A dose 10): − | Allodynia ([3]; Compound A dose 30): + | Body Weight ([3]; Compound A dose 30): +/− | DRG/nerve pathology ([3]; Compound A dose 30): +/− | IENFD ([3]; Compound A dose 30): + | NCS ([3]; Compound A dose 30): +/− | mild axonal changes in the sciatic nerve ([3]; different doses): did not alter these changes | DRG sensory neuron degeneration and satellite cell vacuolization ([3]; preventive setting): incomplete protection | digital NCV vs CTRL ([3]; preventive setting, Compound A 30 mg/kg): no alteration | digital NCV vs CTRL ([3]; preventive setting, Compound A 3 and 10 mg/kg): statistically significant reduction | bortezomib-induced reduction in IENFD ([3]; preventive setting, all doses): significantly prevented | allodynia vs CTRL (mechanical threshold) ([3]; preventive setting, all doses, end of treatment): did not show allodynia | caudal NCV and caudal potential amplitude vs CTRL ([3]; preventive setting, all doses, monohydrochloride salt): statistically significant reduction | digital potential amplitude vs CTRL ([3]; preventive setting, all groups, end of treatment): No changes | caudal nerve pathological changes ([3]; preventive setting, different doses): mild, not dose-dependent reduction in these pathological changes | body weight difference vs. CTRL and bortezomib groups ([3]; preventive study, at the end of treatment): not significant | body weight vs. CTRL and bortezomib groups ([3]; preventive study, different doses, first few weeks until day 21): significant increase in body weight | improvement of digital potential amplitude vs. oxaliplatin-treated mice ([4]; Compound A 30 mg/kg): 33+/−9% | digital potential amplitude ([4]; Compound A 30 mg/kg (FIG. 2B)): able to normalize | oxaliplatin-induced decrease in digital and caudal NCV ([4]; Compound A 10 and 30 mg/kg): significantly prevented | IENFD in footpads vs. vehicle treated mouse values ([4]; Compound A 10 and 30 mg/kg, monohydrochloride salt): completely normalized; also recorded: completely normalised | weight loss compared to oxaliplatin treated mice ([4]; Compound A 10 or 30 mg/kg): less weight loss | Body Weight ([4]; Compound A dose 10): + | IENFD ([4]; Compound A dose 10): + | NCS ([4]; Compound A dose 10): + | Body Weight ([4]; Compound A dose 30): + | IENFD ([4]; Compound A dose 30): + | NCS ([4]; Compound A dose 30): + | degenerative changes in DRG and sciatic nerve ([4]; mouse, in vivo): did not cause any degenerative changes | F [5]: 31.2% | T1/2 z ([5]; iv, 1 mg/kg): 1.6 h | Vz/F ([5]; iv, 1 mg/kg): 3.7 L/kg | T1/2 z ([5]; po, 2 mg/kg): 1.6 h | Vz/F ([5]; po, 2 mg/kg): 13.0 L/kg | time after dosing at which pre-dose heart rate levels were reached again (healthy male subjects; 0.1 to 10 mg single oral dose): 6 h | pulse rate (healthy male subjects; groups treated with Compound A): decrease | maximal decrease of mean heart rate (Holter-ECG) (healthy male subjects; single oral dose 0.1 mg): 5.1 bpm | maximal decrease of mean heart rate (Holter-ECG) (healthy male subjects; single oral dose 0.3 mg): 6.8 bpm | maximal decrease of mean heart rate (Holter-ECG) (healthy male subjects; single oral dose 1.0 mg): 15.9 bpm | maximal decrease of mean heart rate (Holter-ECG) (healthy male subjects; single oral dose 10 mg): 18.3 bpm | bortezomib-induced proteasome inhibition (proteasome activity): did not impair
